In patent US20190327961A1, “STABLE SOLID COMPOSITION BASED ON AN AROMATIC COMPOUND AND USES THEREOF” (priority 2016, published 2019):

What was measured:
rot of clementines [1] = experiment: Drenching and waxing of non-infected, experimentally damaged clementines; format: in vivo, clementines (Afourar variety); conditions: washed then waxed, 27° C.
Penicillium digitatum = experiment: Drenching and waxing of clementines infected by injection of spores; format: in vivo, clementines (Afourar variety); conditions: fruits waxed only (batches 3 and 4)
rot of clementines [2] = experiment: Tracking of the rot rate of clementines in a packing station; format: in vivo, clementines (Afourar variety)
E. coli [3] = experiment: Disinfection of an artificially contaminated fibroscope; conditions: fibroscope contaminated with E. coli, disinfectant at (1/10)
E. coli [4] = experiment: Antibacterial action compared with glutaraldehyde in 96-well microplates; format: cell-based; conditions: for bacterial growth (optical density, 600-nm wavelength): E. coli, 37° C., 24 hours

C=CCOC(Cn1ccnc1)c1ccc(Cl)cc1Cl (stereo not shown) [imazalil]
Percentage of the Rotten Surface on the Fruits (rot of clementines [1]; 4 D): 0% | Percentage of the Rotten Surface on the Fruits (rot of clementines [1]; 6 D): 7% | Percentage of the Rotten Surface on the Fruits (rot of clementines [1]; 8 D): 11% | Percentage of the Rotten Surface on the Fruits (rot of clementines [1]; 10 D): 17% | Percentage of the Rotten Surface on the Fruits (rot of clementines [1]; 12 D): 29% | Percentage of the Rotten Surface on the Fruits (rot of clementines [1]; 14 D): 38% | Percentage of the Rotten Surface on the Fruits (rot of clementines [1]; 16 D): 44% | day after infection on which rot begins (Penicillium digitatum; P. digitatum injected, 20° C.): starting from the fourth day | diameter of the rot (Penicillium digitatum; after 7 days): 2.55 cm | Percentage of Rotten Fruits (rot of clementines [2]; Storage at 8° C., Week 1): 2.63% | Percentage of Rotten Fruits (rot of clementines [2]; Storage at 8° C., Week 2): 1.35% | Percentage of Rotten Fruits (rot of clementines [2]; Storage at 8° C., Week 3): 2.16% | Percentage of Rotten Fruits (rot of clementines [2]; Storage at 8° C., Week 4): 4.67% | Percentage of Rotten Fruits (rot of clementines [2]; Storage at 25° C., Week 1): 7.78% | Percentage of Rotten Fruits (rot of clementines [2]; Storage at 25° C., Week 2): 6.91% | Percentage of Rotten Fruits (rot of clementines [2]; Storage at 25° C., Week 3): 9.68% | Percentage of Rotten Fruits (rot of clementines [2]; Storage at 25° C., Week 4): 8.43%

O=CCCCC=O [Glutaraldehyde, glutaraldehyde]
bacterial load After Disinfection (E. coli [3]): Layers | bacterial load After Disinfection (E. coli [3]; listed as glutaraldehyde): layer of bacteria | inhibiting minimal concentration (CMI) (E. coli [4]; E. coli suspension on the order of 10^8 UFC/ml, expressed as dilution): obtained only with the pure disinfectant | bacterial growth (optical density, 600-nm wavelength) (E. coli [4]; concentration 1): 0 | bacterial growth (optical density, 600-nm wavelength) (E. coli [4]; concentration 1/10): 0.13 ± 0.002 | bacterial growth (optical density, 600-nm wavelength) (E. coli [4]; concentration 1/100): 0.15 ± 0.002 | bacterial growth (optical density, 600-nm wavelength) (E. coli [4]; concentration 1/250): 0.17 ± 0.003 | bacterial growth (optical density, 600-nm wavelength) (E. coli [4]; concentration 1/500): 0.20 ± 0.002 | bacterial growth (optical density, 600-nm wavelength) (E. coli [4]; concentration 1/750): 0.20 ± 0.002 | bacterial growth (optical density, 600-nm wavelength) (E. coli [4]; concentration 1/1,000): 0.22 ± 0.012 | bacterial growth (optical density, 600-nm wavelength) (E. coli [4]; concentration 1/2,000): 0.28 ± 0.035 | bacterial growth (optical density, 600-nm wavelength) (E. coli [4]; concentration 1/4,000): 0.34 ± 0.007 | bacterial growth (optical density, 600-nm wavelength) (E. coli [4]; concentration 1/8,000): 0.47 ± 0.034 | bacterial growth (optical density, 600-nm wavelength) (E. coli [4]; concentration 1/16,000): 0.50 ± 0.005
